Measurements: US20170253607A1, “LONG-ACTING HIV PROTEASE INHIBITOR” (Shionogi & Co., Ltd., priority 2014, published 2017)

Tests used:
[1] = Evaluation of total body clearance (CLtot), intravenous administration; assay type: in vivo, Sprague-Dawley (SD); conditions: rat (SD), intravenous administration 0.5-10 mg/kg; CLtot = dose/AUC
Outline: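 Compounds given as a single tail-vein injection at 0.5-10 mg/kg (n=2-3), dose varying by compound. Plasma sampled at scheduled times and measured by LC/MS/MS; CLtot derived as dose divided by AUC from pharmacokinetic analysis.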

HIV-1 PR = HIV-1 PR (Human immunodeficiency virus type 1 group M subtype B, UniProt P04585); test: HIV-protease inhibitory activity assay (FRET peptide substrate); assay type: biochemical; conditions: Test Example 1
Outline: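 Fluorescence recovery at ex 485/em 535 nm reports cleavage of a quenched FRET peptide (2 μmol/L final) by 0.83 ng enzyme over 60 minutes at room temperature. Buffer was NaAc pH 4.8 with NaCl, EDTA, DTT and Tween 20. IC50 values came from four-parameter logistic regression of % inhibition.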

SMILES | rat_CLt [1] [mL/min/kg] | IC50 (HIV-1 PR) [nM]
COc1ccc(S(=O)(=O)N(CC(C)C)CC(O)C(Cc2ccc(N3CCC(Oc4ccccc4C(=O)Nc4sc5c(c4C(=O)O)CC(C)(C)CC5)C3)cc2)NC(=O)OC2COC3(C)OCCC23)cc1 (stereo not drawn) [Compound I-588] | 0.291 | 3.29
COc1ccc(S(=O)(=O)N(CC(C)C)CC(O)C(Cc2ccc(NCC3=C(C(=O)Nc4sc5c(c4C(=O)O)CC(C)(C)CC5)CCC3)cc2)NC(=O)OC2COC3(C)OCCC23)cc1 (stereo not drawn) [Compound I-589] | 0.311 | 3.48
COc1ccc(S(=O)(=O)N(CC(C)C)C[C@@H](O)[C@H](Cc2ccc(N3CC[C@H](Oc4ccccc4-n4nc5c(c4C(=O)O)CC(C)(C)CC5)C3)cc2)NC(=O)O[C@H]2CO[C@@]3(C)OCC[C@@H]23)cc1 [Compound I-596] | 0.213 | 1.54
COc1ccc(S(=O)(=O)N(CC(C)C)CC(O)C(Cc2ccc(NCc3cccc(C)c3-c3sc4c(c3C(=O)O)CC(C)(C)CC4)cc2)NC(=O)OC2COC3(C)OCCC23)cc1 (stereo not drawn) [Compound I-598] | 0.532 | 2.12
COc1ccc(S(=O)(=O)N(CC(C)C)CC(O)C(Cc2ccc(N(C)Cc3cccc(C)c3-c3sc4c(c3C(=O)O)CC(C)(C)CC4)cc2)NC(=O)OC2COC3(C)OCCC23)cc1 (stereo not drawn) [Compound I-599] | 0.479 | 2.46
CC1(C)CCc2sc(NC(=O)c3ccccc3CNc3ccc(CC(NC(=O)OC4COC5(C)OCCC45)C(O)CN(CC4CCCC4)S(=O)(=O)c4ccc5c(c4)OCO5)cc3)c(C(=O)O)c2C1 (stereo not drawn) [Compound I-600] | 0.104 | 5.07
CC1(C)CCc2sc(NC(=O)c3ccccc3CNc3ccc(CC(NC(=O)OC4COC5(C)OCCC45)C(O)CN(CC4CCCC4)S(=O)(=O)c4ccc5ncsc5c4)cc3)c(C(=O)O)c2C1 (stereo not drawn) [Compound I-601] | 0.164 | 3.26
COc1ccc(S(=O)(=O)N(CC2CCC2)CC(O)C(Cc2ccc(NCc3ccccc3C(=O)Nc3sc4c(c3C(=O)O)CC(C)(C)CC4)cc2)NC(=O)OC2COC3(C)OCCC23)cc1 (stereo not drawn) [Compound I-602] | 0.0667 | 3.67
COc1ccc(S(=O)(=O)N(CC(C)C)CC(O)C(Cc2ccc(NC(C)c3ccccc3-c3sc4c(c3C(=O)O)CC(C)(C)CC4)cc2)NC(=O)OC2COC3(C)OCCC23)cc1 (stereo not drawn) [Compound I-603] | 5.83 | 3.65
COc1ccc(S(=O)(=O)N(CC(C)C)CC(O)C(Cc2ccc(N3CCC(Oc4cc(N(C)C)ccc4-c4sc5c(c4C(=O)O)CC(C)(C)CC5)C3)cc2)NC(=O)OC2COC3(C)OCCC23)cc1 (stereo not drawn) [Compound I-606] | 2.2 | 2.25
COc1ccc(S(=O)(=O)N(CC(C)C)CC(O)C(Cc2ccc(NCc3nc(N4CCCC4)sc3-c3sc4c(c3C(=O)O)CC(C)(C)CC4)cc2)NC(=O)OC2COC3(C)OCCC23)cc1 (stereo not drawn) [Compound I-607] | 0.797 | 1.8
CC1(C)CCc2sc(NC(=O)c3ccccc3CNc3ccc(CC(NC(=O)OC4COC5(C)OCCC45)C(O)CN(CC4CCC4)S(=O)(=O)c4ccc5c(c4)OCO5)cc3)c(C(=O)O)c2C1 (stereo not drawn) [Compound I-613] | 0.0573 | 2.55
COc1ccc(S(=O)(=O)N(CC(C)C)CC(O)C(Cc2ccc(NCC3CCCCC3C(=O)Nc3sc4c(c3C(=O)O)CC(C)(C)CC4)cc2)NC(=O)OC2COC3(C)OCCC23)cc1 (stereo not drawn) [Compound I-614] | 0.146 | 2.91
CC1(C)CCc2sc(NC(=O)c3ccccc3CNc3ccc(CC(NC(=O)OC4COC5(C)OCCC45)C(O)CN(CC4CCC4)S(=O)(=O)c4ccc5ncsc5c4)cc3)c(C(=O)O)c2C1 (stereo not drawn) [Compound I-617] | 0.098 | 3.13
COc1ccc(S(=O)(=O)N(CC(C)C)CC(O)C(Cc2ccc(NCc3cc(F)ccc3C(=O)Nc3sc4c(c3C(=O)O)CC(C)(C)CC4)cc2)NC(=O)OC2COC3(C)OCCC23)cc1 (stereo not drawn) [Compound I-625] | 0.0688 | 5.07
CN(Cc1ccccc1C(=O)Nc1sc2c(c1C(=O)O)CC(C)(C)CC2)c1ccc(CC(NC(=O)OC2COC3(C)OCCC23)C(O)CN(CC2CCCC2)S(=O)(=O)c2ccc3ncsc3c2)cc1 (stereo not drawn) [Compound I-636] | 0.372 | 4.37
COc1ccc(S(=O)(=O)N(CC(C)C)CC(O)C(Cc2ccc(NCc3cnc4sccc4c3-c3sc4c(c3C(=O)O)CC(C)(C)CC4)cc2)NC(=O)OC2COC3(C)OCCC23)cc1 (stereo not drawn) [Compound I-648] | 0.783 | 2.31
COc1ccc(S(=O)(=O)N(CC(C)C)CC(O)C(Cc2ccc(NCc3cc4ccsc4nc3-c3sc4c(c3C(=O)O)CC(C)(C)CC4)cc2)NC(=O)OC2COC3(C)OCCC23)cc1 (stereo not drawn) [Compound I-649] | 0.622 | 2.25

SMILES | rat_CLt [1] [mL/min/kg] | IC50 (HIV-1 PR) [nM]
COc1ccc(S(=O)(=O)N(CC(C)C)CC(O)C(Cc2ccc(NCc3cc4c(cc3-c3sc5c(c3C(=O)O)CC(C)(C)CC5)OCCO4)cc2)NC(=O)OC2COC3(C)OCCC23)cc1 (stereo not drawn) [Compound I-651] | 0.536 | 2
COc1ccc(S(=O)(=O)N(CC(C)C)CC(O)C(Cc2ccc(NCc3cc4ccccc4nc3-c3sc4c(c3C(=O)O)CC(C)(C)CC4)cc2)NC(=O)OC2COC3(C)OCCC23)cc1 (stereo not drawn) [Compound I-652] | 0.641 | 2.46
COc1ccc(S(=O)(=O)N(CC(C)C)CC(O)C(Cc2ccc(NCC3=C(c4sc5c(c4C(=O)O)CC(C)(C)CC5)CC(C)(C)C3)cc2)NC(=O)OC2COC3(C)OCCC23)cc1 (stereo not drawn) [Compound I-662] | 1.11 | 2.51
COc1ccc(S(=O)(=O)N(CC(C)C)CC(O)C(Cc2ccc(NCc3cc(-n4ccccc4=O)ccc3-c3sc4c(c3C(=O)O)CC(C)(C)CC4)cc2)NC(=O)OC2COC3(C)OCCC23)cc1 (stereo not drawn) [Compound I-664] | 1.5 | 1.86
COc1ccc(S(=O)(=O)N(CC(C)C)CC(O)C(Cc2ccc(N3CCC(Cc4ccccc4-c4sc5c(c4C(=O)O)CC(C)(C)CC5)CC3)cc2)NC(=O)OC2COC3(C)OCCC23)cc1 (stereo not drawn) [Compound I-666] | 0.668 | 4.7
C=CCNc1ccc(-c2sc3c(c2C(=O)O)CC(C)(C)CC3)c(CNc2ccc(CC(NC(=O)OC3COC4(C)OCCC34)C(O)CN(CC(C)C)S(=O)(=O)c3ccc(OC)cc3)cc2)c1 (stereo not drawn) [Compound I-676] | 0.145 | 2.42
COc1ccc(S(=O)(=O)N(CC(C)C)CC(O)C(Cc2ccc(NCc3cc(N4CCOCC4)ccc3-c3sc4c(c3C(=O)O)CC(C)(C)CC4)cc2)NC(=O)OC2COC3(C)OCCC23)cc1 (stereo not drawn) [Compound I-679] | 1.65 | 2.82
COc1ccc(S(=O)(=O)N(CC(C)C)CC(O)C(Cc2ccc(NCc3cc(N4CCN(C)CC4)ccc3-c3sc4c(c3C(=O)O)CC(C)(C)CC4)cc2)NC(=O)OC2COC3(C)OCCC23)cc1 (stereo not drawn) [Compound I-680] | 2.77 | 2.1
COc1ccc(S(=O)(=O)N(CC(C)C)CC(O)C(Cc2ccc(NCc3cc(N4CCCCC4)ccc3-c3sc4c(c3C(=O)O)CC(C)(C)CC4)cc2)NC(=O)OC2COC3(C)OCCC23)cc1 (stereo not drawn) [Compound I-689] | 0.385 | 2.01
COc1ccc(S(=O)(=O)N(CC(C)C)CC(O)C(Cc2ccc(NCc3cc(N4CCC4)ccc3-c3sc4c(c3C(=O)O)CC(C)(C)CC4)cc2)NC(=O)OC2COC3(C)OCCC23)cc1 (stereo not drawn) [Compound I-693] | 0.247 | 3.3
COc1ccc(S(=O)(=O)N(CC(C)C)CC(O)C(Cc2ccc(N(C)Cc3cc(N4CCN(C)CC4)ccc3-c3sc4c(c3C(=O)O)CC(C)(C)CC4)cc2)NC(=O)OC2COC3(C)OCCC23)cc1 (stereo not drawn) [Compound I-701] | 2.71 | 1.49
COc1ccc(S(=O)(=O)N(CC(C)C)CC(O)C(Cc2ccc(N(C)Cc3cc4c(cc3-c3sc5c(c3C(=O)O)CC(C)(C)CC5)OCCO4)cc2)NC(=O)OC2COC3(C)OCCC23)cc1 (stereo not drawn) [Compound I-704] | 0.724 | 2.39
COc1ccc(S(=O)(=O)N(CC(C)C)CC(O)C(Cc2ccc(NCc3nc(N4CCCC4)sc3-c3ccc(-c4sc5c(c4C(=O)O)CC(C)(C)CC5)cc3)cc2)NC(=O)OC2COC3(C)OCCC23)cc1 (stereo not drawn) [Compound I-714] | 0.0783 | 4.5
COc1ccc(S(=O)(=O)N(CC(C)C)C[C@@H](O)[C@H](Cc2ccc(NCc3cc(-c4ccc(N(C)C)cc4)ccc3-c3sc4c(c3C(=O)O)CC(C)(C)CC4)cc2)NC(=O)O[C@H]2CO[C@@]3(C)OCC[C@@H]23)cc1 [Compound I-720] | 0.0677 | 2.42
COc1ccc(S(=O)(=O)N(CC(C)C)CC(O)C(Cc2ccc(NCc3cc(C4=CCCCC4)ccc3-c3sc4c(c3C(=O)O)CC(C)(C)CC4)cc2)NC(=O)OC2COC3(C)OCCC23)cc1 (stereo not drawn) [Compound I-727] | 0.0528 | 3.38
COc1ccc(S(=O)(=O)N(CC(C)C)CC(O)C(Cc2ccc(NCc3ccc(N4CCCC4=O)cc3-c3sc4c(c3C(=O)O)CC(C)(C)CC4)cc2)NC(=O)OC2COC3(C)OCCC23)cc1 (stereo not drawn) [Compound I-742] | 5.03 | 2.08
COc1ccc(S(=O)(=O)N(CC(C)C)CC(O)C(Cc2ccc(NCc3ccccc3-c3sc4c(c3C(=O)O)CC(C)(C)CC4)cc2)NC(=O)OC2COC3OCCC23)cc1 (stereo not drawn) [Compound I-852] | 2.25 | 1.99
COc1ccc(S(=O)(=O)N(CC2CCCC2)CC(O)C(Cc2ccc(NCc3ccccc3C(=O)Nc3sc4c(c3C(=O)O)CC(C)(C)CC4)cc2)NC(=O)OC2COC3OCCC23)cc1 (stereo not drawn) [Compound I-857] | 0.132 | 3.41
